The source made the active and inactive calls.
Key:
[1] = target: T1, Long-chain-fatty-acid--AMP ligase FadD28 (Mycobacterium tuberculosis, UniProt P9WQ59); experiment: Fluorescence polarization aasay to screen for inhibitors that compete for the binding of FadD28 to a bisubstrate Measured in Biochemical System Using Plate Reader - 2147-01_Inhibitor_Dose_CherryPick_Activity.; format: functional, Mycobacterium tuberculosis H37Rv
T1 sequence (P9WQ59 whole entry): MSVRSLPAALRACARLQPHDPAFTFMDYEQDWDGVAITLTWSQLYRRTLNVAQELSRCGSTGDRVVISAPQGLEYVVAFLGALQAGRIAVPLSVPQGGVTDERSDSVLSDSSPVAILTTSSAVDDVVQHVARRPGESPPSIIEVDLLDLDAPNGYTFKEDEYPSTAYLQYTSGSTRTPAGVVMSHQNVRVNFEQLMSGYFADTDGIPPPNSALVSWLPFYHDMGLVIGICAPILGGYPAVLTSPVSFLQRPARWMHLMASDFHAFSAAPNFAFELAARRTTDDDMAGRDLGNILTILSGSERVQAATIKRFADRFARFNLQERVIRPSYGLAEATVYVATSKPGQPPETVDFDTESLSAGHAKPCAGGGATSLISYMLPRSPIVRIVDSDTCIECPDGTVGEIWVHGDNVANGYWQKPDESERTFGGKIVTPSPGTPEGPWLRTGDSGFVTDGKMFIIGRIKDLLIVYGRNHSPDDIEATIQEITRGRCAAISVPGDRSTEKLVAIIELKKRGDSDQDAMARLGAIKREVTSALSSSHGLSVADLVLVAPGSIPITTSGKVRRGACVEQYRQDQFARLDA

[2] = target: T2, DNA repair and recombination protein RAD54-like (Homo sapiens, UniProt Q92698); experiment: RAD54 Holliday junction migration blockers – biochemical, fluorescence, cherry-picked samples, dose series, confirmation (AID 651657); format: functional
T2 sequence (Q92698 whole entry): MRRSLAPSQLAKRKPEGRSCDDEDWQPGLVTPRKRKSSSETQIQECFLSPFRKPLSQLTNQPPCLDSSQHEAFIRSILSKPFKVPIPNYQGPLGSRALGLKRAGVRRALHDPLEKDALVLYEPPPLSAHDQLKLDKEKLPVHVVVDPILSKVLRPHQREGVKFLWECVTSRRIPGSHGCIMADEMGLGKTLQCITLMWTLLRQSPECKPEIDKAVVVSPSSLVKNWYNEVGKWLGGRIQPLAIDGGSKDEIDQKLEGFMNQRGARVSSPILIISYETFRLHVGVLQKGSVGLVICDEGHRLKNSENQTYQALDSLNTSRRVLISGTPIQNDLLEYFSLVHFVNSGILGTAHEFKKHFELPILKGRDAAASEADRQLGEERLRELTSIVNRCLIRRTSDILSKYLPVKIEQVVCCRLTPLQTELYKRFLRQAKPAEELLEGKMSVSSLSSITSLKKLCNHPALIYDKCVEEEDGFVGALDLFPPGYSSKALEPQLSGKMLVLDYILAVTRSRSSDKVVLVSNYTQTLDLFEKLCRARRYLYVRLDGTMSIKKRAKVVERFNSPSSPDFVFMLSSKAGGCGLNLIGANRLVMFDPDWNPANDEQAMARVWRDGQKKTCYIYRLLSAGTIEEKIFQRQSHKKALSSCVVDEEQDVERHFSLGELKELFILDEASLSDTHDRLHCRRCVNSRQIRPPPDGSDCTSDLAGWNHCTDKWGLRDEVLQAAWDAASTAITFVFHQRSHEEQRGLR

[3] = P. falciparum Dd2 growth inhibitors, dose response, SYBR Green, cherry-picked samples (AID 1159567); format: functional, cell-based
[4] = toxicity to human hepatoma HepG2 cells – cell-based, cherry-picked samples, cytotoxicity control, dose response (AID 1159577); format: functional
[5] = OVCAR-3 cell viability loss – plate reader, dry powder samples, PAX8 inhibitor project, dose response (AID 743044); format: functional, cell-based
[6] = OVCAR8 cell viability loss – plate reader, dry powder samples, PAX8 project, dose response (AID 743197); format: functional, cell-based; details: OVCAR-8
Paired box protein Pax-8 = Paired box protein Pax-8 (Homo sapiens, UniProt Q06710); experiment: PAX8 transcriptional activity inhibition in RMG-I – RMG-I cells, luciferase, cherry-pick, dose response (AID 687027); format: functional, cell-based;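 note: luciferase reporter driven by Pax8 target thyroperoxidase promoter measured by SteadyGlo luminescence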
Sequence of Paired box protein Pax-8 (Q06710 whole entry): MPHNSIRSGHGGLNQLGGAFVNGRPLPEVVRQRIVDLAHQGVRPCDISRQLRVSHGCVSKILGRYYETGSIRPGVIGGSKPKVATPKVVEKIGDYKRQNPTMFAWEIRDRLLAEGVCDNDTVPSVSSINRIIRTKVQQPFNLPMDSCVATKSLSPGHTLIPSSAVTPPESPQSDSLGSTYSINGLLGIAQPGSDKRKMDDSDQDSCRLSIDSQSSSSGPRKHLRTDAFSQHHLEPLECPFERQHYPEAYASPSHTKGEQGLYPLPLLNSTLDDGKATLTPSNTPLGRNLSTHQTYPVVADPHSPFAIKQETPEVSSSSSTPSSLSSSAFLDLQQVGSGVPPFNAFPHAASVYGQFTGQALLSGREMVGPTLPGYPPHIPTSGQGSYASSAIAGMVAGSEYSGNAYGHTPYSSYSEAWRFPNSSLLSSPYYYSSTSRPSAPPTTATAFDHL

[7] = intracellular Trypanosoma cruzi inhibitors in host cells – cell-based, plate reader, cherry-pick samples, set 3, dose response (AID 651818); format: functional;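 note: compounds incubated with infected cells for about four days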
[8] = general mammalian cell viability loss – activator set, cherry-pick, cytotoxicity control for miR-122 modulator project, dose response (AID 720690); format: functional, cell-based;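 note: HEK293T human cells scored for general mammalian cytotoxicity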
[9] = general mammalian cell viability loss – inhibitor set, cherry-pick, set 2, cytotoxicity control for miR-122 modulator project, dose response (AID 720697); format: functional, cell-based
[10] = target: T3, DNA repair protein RAD52 homolog (Homo sapiens, UniProt P43351); format: functional, biochemical
T3 sequence (P43351 whole entry): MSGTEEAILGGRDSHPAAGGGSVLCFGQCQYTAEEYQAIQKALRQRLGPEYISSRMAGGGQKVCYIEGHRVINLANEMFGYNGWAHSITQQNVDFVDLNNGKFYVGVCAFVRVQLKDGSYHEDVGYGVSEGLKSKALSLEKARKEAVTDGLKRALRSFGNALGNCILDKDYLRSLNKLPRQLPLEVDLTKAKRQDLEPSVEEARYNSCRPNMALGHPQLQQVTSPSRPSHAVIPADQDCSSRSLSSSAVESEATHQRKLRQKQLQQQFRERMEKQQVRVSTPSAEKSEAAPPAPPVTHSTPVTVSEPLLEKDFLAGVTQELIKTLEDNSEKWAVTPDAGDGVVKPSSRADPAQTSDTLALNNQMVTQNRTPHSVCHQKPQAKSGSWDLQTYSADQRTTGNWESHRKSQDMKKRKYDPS

[11] = viability loss in HeLa cells – cytotoxicity control for MgcRacGAP inhibitor project, dose response (AID 624300); format: functional
[12] = Trypanosoma cruzi growth suppression in host cells – NIH3T3 host cells, beta-gal luminescence, confirmation (AID 2044); format: functional, cell-based;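 note: intracellular parasites grown in NIH/3T3 mouse fibroblasts as host cells; luminescent beta-galactosidase reporter signal from transgenic T. cruzi replicating inside host cells; inhibitors lower the luminescence signal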
Streptococcus = experiment: GAS UMAA2166 growth inhibition – luminescence, BacTiterGlo, counter-screen for streptokinase expression inhibitor project, dose response (AID 1915); format: functional, organism-based;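 note: potency for reduction of bacterial viability or growth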
[13] = NIH3T3 cell viability loss – ATP luminescence, mouse fibroblasts, counter-screen, dose response (AID 2010); format: functional, cell-based;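 note: cells exposed to compound for about 90 hours before reading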
INS1 = experiment: INS-1E survival protection against cytokine death – cell-based, luminescence, retest, dose response (AID 449756); format: functional; details: ins1;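 note: cell death triggered by IL-1 beta plus TNF-alpha plus IFN-gamma mixture; protective hits raise ATP signal compared with cytokine alone wells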
[14] = Luminescence Cell-Based Dose Response HTS to Identify Inhibitors of 5'UTR Stem-Loop Driven Prion Protein mRNA Translation in H4 Neuroglioblastoma Cells. [Related pubchem assays: 1827 (Project Summary), 1813 (Primary HTS)]; format: functional
[15] = test system: Streptococcus sp. 'group A'; experiment: Streptococcus pyogenes SK(-)GAS viability under kanamycin – luminescence, BacTiterGlo, confirmation, counter-screen for streptokinase expression inhibitor project, dose response (AID 1900); format: functional, organism-based
[16] = luciferase reporter signal suppression in cells – H4 neuroglioma cells, luminescence, dose response (AID 1990); format: functional, cell-based
[17] = cAMP pathway inhibition in counterscreen cell line – TR-FRET cAMP detection, counter-screen for MC4R biased antagonist project, dose response (AID 602305); format: functional, cell-based;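 note: U2OS cells stimulated with forskolin near its EC80 as the cAMP inducer; potency is for inhibition of forskolin-stimulated cAMP signaling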
[18] = alpha-synuclein stem-loop luciferase translation blockers – H4 neuroglioma cells, luminescence, confirmation (AID 1988); format: functional, cell-based
[19] = target: T4, Fructose-bisphosphate aldolase (Mycobacterium tuberculosis, UniProt P9WQA3); experiment: Fluorescence-based biochemical high throughput dose response assay for inhibitors of the fructose-bisphosphate aldolase (FBA) of M. tuberculosis.; format: functional
T4 sequence (P9WQA3 whole entry): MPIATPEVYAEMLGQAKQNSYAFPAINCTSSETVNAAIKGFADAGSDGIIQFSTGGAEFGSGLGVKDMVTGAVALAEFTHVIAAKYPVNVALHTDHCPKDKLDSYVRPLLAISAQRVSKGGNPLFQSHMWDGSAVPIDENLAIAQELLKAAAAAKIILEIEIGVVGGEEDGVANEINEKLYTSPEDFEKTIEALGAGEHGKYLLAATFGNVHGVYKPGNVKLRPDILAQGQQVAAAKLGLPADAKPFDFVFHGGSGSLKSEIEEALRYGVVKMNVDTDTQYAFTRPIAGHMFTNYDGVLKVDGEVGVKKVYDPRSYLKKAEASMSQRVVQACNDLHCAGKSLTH

## NS(=O)(=O)c1ccc(CNC(=O)C(Cc2ccccc2)NS(=O)(=O)c2ccccc2F)cc1 (stereo not given)
[1]
  AC50: 39.3 µM (active)

## COc1ccc(Cl)c2sc(N(CCN(C)C)C(=O)C3=COCCO3)nc12
[2]
  AC50: 38 µM (active)

## COc1ccc2c3c([nH]c2c1)[C@H](CO)N(Cc1ccncc1)CC31CCN(Cc2ccc(-c3ccccn3)cc2)CC1
[3]
  AC50: 0.973 µM (active)
[4]
  AC50: 17.6 µM (active)

## Cc1noc(C)c1S(=O)(=O)Nc1ccc2c(c1)C(=O)N([C@H](C)CO)C[C@@H](C)[C@H](CN(C)C(=O)Nc1ccc(C(F)(F)F)cc1)OCCCC[C@@H](C)O2
[5]
  AC50: 26.7 µM (active)
[6]
  AC50: 38.2 µM (active)
Paired box protein Pax-8
  AC50: 7.41 µM (active)

## C[C@@H]1CN([C@@H](C)CO)C(=O)c2cc(NC(=O)Nc3ccc(C(F)(F)F)cc3)ccc2O[C@@H]1CN(C)CC1CCCCC1
[7]
  AC50: 5.59 µM (active)
[8]
  AC50: 19.1 µM (active)
[9]
  AC50: 4.35 µM (active)

## COc1ccc(-c2cc(NC=O)c3ncc(-c4cccc(C(=O)NCCN(C)C)c4)n3c2)cc1
[2]
  AC50: 9.93 µM (active)
[10]
  AC50: 2.81 µM (active)

## C[C@@H]1CN([C@@H](C)CO)C(=O)Cc2cc(NC(=O)Nc3ccc(C(F)(F)F)cc3)ccc2O[C@H]1CN(C)CC1CCCCC1
[3]
  AC50: 1.35 µM (active)
[4]
  AC50: 10.4 µM (active)

## N=C(NCCCCCCNC(=N)NC(=N)Nc1ccc(Cl)cc1)NC(=N)Nc1ccc(Cl)cc1
[11]
  CC50: 37.9 µM (active)
[12]
  EC50: 0.332 µM (active)
Streptococcus
  EC50: 2.09 µM (active)
[13]
  EC50: 7.82 µM (active)
INS1
  AC50: 4.27 µM (active)
[14]
  EC50: 18.2 µM (active)
[15]
  EC50: 0.517 µM (active)
[16]
  EC50: 8.64 µM (active)
[17]
  IC50: 61.2 µM (inactive)
[18]
  EC50: 9.88 µM (active)

## Cn1c(-c2cccs2)nc2ccccc21
[19]
  IC50: 1.48 µM (active)

Source: ChEMBL document CHEMBL1201862, “PubChem BioAssay data set” (2004)
